33 compounds from publication PMC6017028 (Molecules : A Journal of Synthetic Chemistry and Natural …, 2018) can be followed below.

By melting point is commonly meant the temperature of the solid-liquid transition. What is called IC50 is the concentration at which inhibition is half-maximal. Low readings indicate inhibition by little substance, high ones a need for much substance.

For data set [1], the target named is T1, human URAT1 (Homo sapiens, UniProt Q96S37).
T1 sequence (Q96S37 1-553): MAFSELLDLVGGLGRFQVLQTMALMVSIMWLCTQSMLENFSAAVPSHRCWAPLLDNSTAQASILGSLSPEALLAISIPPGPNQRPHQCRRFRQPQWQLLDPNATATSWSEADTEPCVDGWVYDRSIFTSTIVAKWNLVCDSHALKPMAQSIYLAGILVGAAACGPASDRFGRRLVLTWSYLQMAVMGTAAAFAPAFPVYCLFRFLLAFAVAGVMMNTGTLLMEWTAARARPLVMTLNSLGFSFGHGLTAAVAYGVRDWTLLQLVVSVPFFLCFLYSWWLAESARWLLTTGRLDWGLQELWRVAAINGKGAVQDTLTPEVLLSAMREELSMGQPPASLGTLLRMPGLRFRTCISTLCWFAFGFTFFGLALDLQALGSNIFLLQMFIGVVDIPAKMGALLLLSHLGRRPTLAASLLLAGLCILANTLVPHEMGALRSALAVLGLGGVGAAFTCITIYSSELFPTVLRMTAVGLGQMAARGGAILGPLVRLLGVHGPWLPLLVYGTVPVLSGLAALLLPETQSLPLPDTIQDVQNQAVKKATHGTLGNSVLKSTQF
The settings on record: for URAT1 inhibitory activity (in words): human URAT1, HEK293-URAT1 cells.
Procedure: After incubation for 48 h, when the HEK293-URAT1 cells and mock cells were grown to confluence, the cells were treated with 0.25% trypsin for 1–2 min. Thereafter, the digested cells were diluted to a density of 1.5 × 10^5/mL and seeded onto the 24-well cell culture plates at 1 mL/well for about 48 h. […] The HEK293-URAT1 cells were then washed rapidly three times with ice-cold HBSS (Cl^− free) and lysed with 0.1 M aqueous NaOH solution. After that, 500-μL aliquots of cell lysates were transferred to scintillation vials and mixed with scintillation solution. The radioactivity in the cells was measured by a liquid scintillation counter (PerkinElmer, Waltham, MA, USA).

Where [2] appears, read: ratio of IC50 values against human URAT1.

Turning to `O=C([O-])CSc1nnc(Br)n1Cc1ccccc1.[Na+]` [1e, Sodium 2-((4-benzyl-5-bromo-4H-1,2,4-triazol-3-yl)thio)acetate], the melting point lay within 119 to 121 °C. For the same compound, 2.98 ± 0.6 µM corresponded to half-maximal inhibition in data set [1] (IC50).

Consider `O=C([O-])CSc1nnc(Br)n1Cc1ccc2occc2c1.[Na+]` [1k, Sodium 2-((4-(benzo[b]furan-5-methyl)-5-bromo-4H-1,2,4-triazol-3-yl)thio)acetate], for which the melting point was 92 °C (dec.). Besides, the half-maximal inhibitory concentration (IC50) in data set [1] was 2.61 ± 0.4 µM.

In the case of `CC(C)(Sc1nnc(Br)n1Cc1ccc(C#N)c2ccccc12)C(=O)O` [1o], half-maximal inhibition in data set [1] (IC50) required 1.96 ± 0.34 µM.

Compound `O=C([O-])CSc1nnc(Br)n1Cc1ccc(-c2ccccc2)cc1.[Na+]` [1i, Sodium 2-((4-(biphenyl-4-methyl)-5-bromo-4H-1,2,4-triazol-3-yl)thio)acetate] came in with a melting point of 199 to 201 °C. Also, the IC50 in data set [1] was 1.16 ± 0.34 µM.

With `CC(C)(Sc1ncc(Br)n1Cc1ccc(C#N)c2ccccc12)C(=O)[O-].[Na+]` [1r, Sodium 2-((5-bromo-1-((4-cyano-1-naphthyl)methyl)-1H-imidazol-2-yl)thio)-2-methylpropionate], the melting point was 243 °C (dec.). It took 0.21 ± 0.07 µM to reach half-maximal inhibition in data set [1] (IC50).

With `N#Cc1ccc(Cn2c(Br)cnc2SCC(=O)[O-])c2ccccc12.[Na+]` [1q, Sodium 2-((5-bromo-1-((4-cyano-1-naphthyl)methyl)-1H-imidazol-2-yl)thio)acetate], the melting point is 161 °C (dec.). This compound also had an IC50 in data set [1] of 5.55 ± 0.98 µM.

Turning to `O=C([O-])CSc1nnc(Br)n1Cc1sc2ccccc2c1Br.[Na+]` [1hh, Sodium 2-((5-bromo-4-((3-bromobenzo[b]thiophen-2-yl)methyl)-4H-1,2,4-triazol-3-yl)thio)acetate], the melting point is 99 °C (dec.). Half-maximal inhibition in data set [1] (IC50) required 0.12 ± 0.03 µM.

Take `Cc1ccc(Cn2c(Br)nnc2SCC(=O)[O-])s1.[Na+]` [1hb, Sodium 2-((5-bromo-4-((5-methyl-2-thiophenyl)methyl)-4H-1,2,4-triazol-3-yl)thio)acetate]: the melting point was 157 °C (dec.). The compound also showed a half-inhibitory concentration (IC50) in data set [1] above 50 µM.

For `CCn1c(Br)nnc1SCC(=O)O` [1a, Sodium 2-((5-bromo-4-ethyl-4H-1,2,4-triazol-3-yl)thio)acetate], 18.4 ± 3.36 µM corresponded to half-maximal inhibition in data set [1] (IC50).

`O=C([O-])CSc1nnc(Br)n1C(c1ccccc1)c1ccccc1.[Na+]` [1j, Sodium 2-((5-bromo-4-(diphenylmethyl)-4H-1,2,4-triazol-3-yl)thio)acetate]: the melting point was 195 °C (dec.). In data set [1], this compound registered a half-maximal inhibitory concentration (IC50) of 1.15 ± 0.25 µM.

On to `O=C([O-])CSc1nnc(Br)n1Cc1ccc(Cl)s1.[Na+]` [1ha, Sodium 2-((5-bromo-4-((5-chloro-2-thiophenyl)methyl)-4H-1,2,4-triazol-3-yl)thio)acetate], for which the melting point was 97 °C (dec.). Moreover, in data set [1], the IC50 worked out at 11.2 ± 2.36 µM.

For the compound `O=C([O-])CSc1nnc(Br)n1CC12CC3CC(CC(C3)C1)C2.[Na+]` [1d, Sodium 2-((4-(1-adamantylmethyl)-5-bromo-4H-1,2,4-triazol-3-yl)thio)acetate], the melting point is 194 °C (dec.). Half-maximal inhibition in data set [1] (IC50) required 5.11 ± 0.79 µM.

For `O=C([O-])CSc1nnc(Br)n1Cc1ccc2ccccc2c1.[Na+]` [1m, Sodium 2-((5-bromo-4-(2-naphthylmethyl)-4H-1,2,4-triazol-3-yl)thio)acetate], the melting point was 118 °C (dec.). For the same compound, inhibition in data set [1] was half-maximal at 4.66 ± 1.04 µM (IC50).

Take `O=C([O-])CSc1nnc(Br)n1Cc1ccco1.[Na+]` [1g, Sodium 2-((5-bromo-4-(2-furanylmethyl)-4H-1,2,4-triazol-3-yl)thio)acetate]: the melting point fell in the range of 108 to 111 °C. In data set [1], this compound yielded an IC50 of 4.54 ± 0.69 µM.

With `O=C([O-])CSc1nnc(Br)n1Cc1ccc2ncccc2c1.[Na+]` [1n, Sodium 2-((5-bromo-4-(quinoline-6-methyl)-4H-1,2,4-triazol-3-yl)thio)acetate], the melting point was 122 °C (dec.). The compound further returned an IC50 in data set [1] of 1.36 ± 0.24 µM.

As for `O=C([O-])CSc1nnc(Br)n1Cc1ccc(-c2ccccc2)s1.[Na+]` [1hg, Sodium 2-((5-bromo-4-((5-phenyl-2-thiophenyl)methyl)-4H-1,2,4-triazol-3-yl)thio)acetate], the melting point was 212 °C (dec.). Moreover, the IC50 in data set [1] stood at 31.7 ± 9.34 µM.

Consider `CC(C)(Sc1ncc(Br)n1Cc1cccs1)C(=O)[O-].[Na+]` [1w, Sodium 2-((5-bromo-1-((2-thiophenyl)methyl)-1H-imidazol-2-yl)thio)-2-methylpropionate], for which the melting point is 75 °C (dec.). In data set [1], the IC50 was determined as 17.4 ± 3.98 µM and the “URAT1 inhibitory activity (in words)” value was “weak”.

For `CCc1ccc(Cn2c(Br)nnc2SCC(=O)[O-])s1.[Na+]` [1hc, Sodium 2-((5-bromo-4-((5-ethyl-2-thiophenyl)methyl)-4H-1,2,4-triazol-3-yl)thio)acetate], the melting point lay within 178 to 180 °C. This compound registered a half-inhibitory concentration (IC50) in data set [1] of 7.98 ± 2.14 µM.

For the compound `O=C([O-])CSc1nnc(Br)n1Cc1cccc2c1sc1ccccc12.[Na+]` [1hi, Sodium 2-((5-bromo-4-((dibenzo[b,d]thiophen-4-yl)methyl)-4H-1,2,4-triazol-3-yl)thio)acetate], the melting point was 74 °C (dec.). This compound displayed an IC50 in data set [1] of 18.5 ± 5.41 µM.

Consider `O=C([O-])CSc1nnc(Br)n1Cc1ccsc1.[Na+]` [1hf, Sodium 2-((5-bromo-4-((3-thiophenyl)methyl)-4H-1,2,4-triazol-3-yl)thio)acetate], for which the melting point was in the range of 124 to 126 °C. Besides, in data set [1], the 50% inhibitory concentration (IC50) is above 50 µM and the “URAT1 inhibitory activity (in words)” value is recorded as “complete loss of URAT1 inhibitory activity”.

`N#Cc1ccc(Cn2c(Br)nnc2SCC(=O)O)c2ccccc12` [1l, Sodium 2-((5-bromo-4-((4-cyano-1-naphthyl)methyl)-4H-1,2,4-triazol-3-yl)thio)acetate] yielded an IC50 in data set [1] of 3.8 ± 0.78 µM.

As for `N#Cc1ccc(Cc2cnccc2SC2(C(=O)[O-])CCC2)c2ccccc12.[Na+]` [1v, Sodium 1-((3-((4-cyano-1-naphthyl)methyl)pyridin-4-yl)thio)cyclobutanecarboxylate], the melting point was 296 °C (dec.). The same compound gave a 50% inhibitory concentration (IC50) in data set [1] of 1.15 ± 0.2 µM.

For the compound `N#Cc1ccc(Cc2cnccc2SCC(=O)[O-])c2ccccc12.[Na+]` [1t, Sodium 2-((3-((4-cyano-1-naphthyl)methyl)pyridin-4-yl)thio)acetate], the melting point is 268 °C (dec.). Half-maximal inhibition in data set [1] (IC50) required 8.83 ± 1.02 µM.

`O=C([O-])CSc1nnc(Br)n1Cc1cccnc1.[Na+]` [1f, Sodium 2-((5-bromo-4-(3-pyridinylmethyl)-4H-1,2,4-triazol-3-yl)thio)acetate]: the melting point fell in the range of 109 to 111 °C. The compound also registered an IC50 in data set [1] of 14.2 ± 4.71 µM.

For the compound `Cc1ccsc1Cn1c(Br)nnc1SCC(=O)[O-].[Na+]` [1hd, Sodium 2-((5-bromo-4-((3-methyl-2-thiophenyl)methyl)-4H-1,2,4-triazol-3-yl)thio)acetate], the melting point was 158 °C (dec.). Besides, the half-maximal inhibitory concentration (IC50) in data set [1] stood at 3.04 ± 0.84 µM.

For the compound `Cc1cc(Cn2c(Br)nnc2SCC(=O)[O-])sc1Br.[Na+]` [1he, Sodium 2-((5-bromo-4-((5-bromo-4-methyl-2-thiophenyl)methyl)-4H-1,2,4-triazol-3-yl)thio)acetate], the melting point was 87 °C (dec.). In addition, in data set [1], the 50% inhibitory concentration (IC50) is 6.1 ± 1.17 µM.

With `O=C([O-])CSc1nnc(Br)n1Cc1cccs1.[Na+]` [1h, Sodium 2-((5-bromo-4-(2-thiophenylmethyl)-4H-1,2,4-triazol-3-yl)thio)acetate], 0.035 ± 0.01 µM corresponded to half-maximal inhibition in data set [1] (IC50). In addition, in data set [1] (setting [2]), the “fold more potent than benzbromarone” value amounted to 8 fold and the “fold more potent than parent lesinurad” value came out at 200 fold.

Consider `O=C([O-])C1(Sc2ncc(Br)n2Cc2cccs2)CCC1.[Na+]` [1x, Sodium 1-((5-bromo-1-((2-thiophenyl)methyl)-1H-imidazol-2-yl)thio)cyclobutanecarboxylate], for which the melting point was 210 °C (dec.). Further, in data set [1], the IC50 came to 0.32 ± 0.07 µM and the “URAT1 inhibitory activity (in words)” value was “highly potent”.

For `CCCn1c(Br)nnc1SCC(=O)O` [1b, Sodium 2-((5-bromo-4-n-propyl-4H-1,2,4-triazol-3-yl)thio)acetate], the midpoint of inhibition in data set [1], the IC50, lay at 4.83 ± 1.02 µM.

Turning to `O=C([O-])CSc1nnc(Br)n1CC1CCCCC1.[Na+]` [1c, Sodium 2-((5-bromo-4-(cyclohexylmethyl)-4H-1,2,4-triazol-3-yl)thio)acetate], the melting point was 135 °C (dec.). The IC50 in data set [1] is 4.6 ± 0.88 µM.

`N#Cc1ccc(Cn2c(Br)nnc2SC2(C(=O)[O-])CCC2)c2ccccc12.[Na+]` [1p, Sodium 1-((5-bromo-4-((4-cyano-1-naphthyl)methyl)-4H-1,2,4-triazol-3-yl)thio)cyclobutanecarboxylate]: the melting point was 136 °C (dec.). The compound further yielded an IC50 in data set [1] of 0.59 ± 0.17 µM.

In data set [1], `CC(C)(Sc1ccncc1Cc1ccc(C#N)c2ccccc12)C(=O)O` [1u, Sodium 2-((3-((4-cyano-1-naphthyl)methyl)pyridin-4-yl)thio)-2-methylpropionate] registered an IC50 of 1.39 ± 0.42 µM.

Consider `N#Cc1ccc(Cn2c(Br)cnc2SC2(C(=O)[O-])CCC2)c2ccccc12.[Na+]` [1s, Sodium 1-((5-bromo-1-((4-cyano-1-naphthyl)methyl)-1H-imidazol-2-yl)thio)cyclobutanecarboxylate], for which the melting point was 285 °C (dec.). In data set [1], this compound gave an IC50 of 0.48 ± 0.11 µM.
